Results as given in US5744621A, “Irreversible HIV protease inhibitors, intermediates, compositions and processes for the preparation thereof” (Lucky Limited., priority 1992, dated 1998).
Read-outs that look alike come from different tables or passages of the source.

Legend:
HIV-1 = experiment: Anti-viral activity: syncytium formation (Sup T1) or reverse transcriptase assay (H9); format: cell-based
Experimental: The anti-viral activity of the compounds of the present invention was determined by measuring the concentration of the compounds that inhibits the proliferation of HIV by 50%(IC50) through a survey for syncytium formation or reverse transcriptase assay.
1×10^5 cells of each of H9(ATCC HTB 176) and Sup T1 cell lines were added to the wells of a 24-well microtiter plate and various concentrations so the compounds of the present invention were added thereto. 200 TCID50 (200-fold of 50% tissue culture infection dose) of HIV-1 inoculum and rpmi-1640 medium(Sigma Chemical Co., U.S.A) were added successively to the wells and the plate was incubated at 37° C. In case of Sup T1, the number of syncytium formed was investigated after 3 to 9 days. IC50 of each compound was determined by measuring the concentration of inhibitor that can reduce the number of syncytium by 50% compared with those formed in the same condition without the inhibitor.
In case of H9, three-quarters(3/4) of the culture medium in volume was refreshed every 3 days; and 6 ml of the culture fluid was centrifuged at 1000 rpm for 10 minutes. To 5 ml of the resulting supernatant were added 2.5 ml of 30% polyethyleneglycol(PEG, M.W. 6000-8000) and 0.4M NaCl. The resulting solution was allowed to stand at 0° C. overnight to precipitate virus particles. The solution was centrifuged at 2000 rpm for 45 minutes, the supernatant was discarded therefrom and the precipitate was diluted with 20 μl of a reverse transcriptase suspension buffer(50 mM tris-HCl, pH 7.5, 1 mM dithiothreitol, 20% glycerol, 0.25M KCl and 0.25% Triton X-100). The resulting suspension was stored in an Effendorf tube at -70° C. until used. A procedure of freezing said virus suspension for 2 minutes in dry ice and thawing same at 37° C. for 2 minutes was repeated three times and the resulting suspension was centrifuged at 4° C. The resulting supernatant was used in carrying out the reverse transcriptase assay.
10 μl of the said viral suspension was added to a solution of: 10 μl of buffer solution(250 mM tris-HCl, pH 7.5, 37.5 mM MgCl2, 0.25% triton X-100), 1.2 μl of 200 mM dithiothreitol, 5 μl of 10 μM oligo(dT)-poly(A)(Boeringer Manheim, 12-18 oligomer), 1 μl(1 μCi) of ^3 H-TTP(Thymidinetri-phosphate) and 23.6 μl of water; and the resulting mixture was placed at 37° C. After 1 hour, the mixture was poured onto a WHATMAN DEB1 filter and the filter was washed three times with 5 ml of 2×SSC buffer solution(17.53 g of sodium chloride, 8.82 g of sodium citrate, pH 7.0, 1 liter of water) for about 10 minutes each time and twice with 95% ethanol for 10 seconds. The filter was put onto aluminium foil and dried with an infra-red lamp. The amount of radioactivity was counted using a liquid scintillation counter. IC50 of each compound was determined by measuring the concentration of inhibitor that can reduce the activity of reverse transcriptase by 50%.

H9 cell or Sup T1 cell = experiment: Cytotoxicity in H9 or Sup T1 cells (trypan blue dye exclusion); format: cell-based; details: human, h9 or sup t1 cells
Experimental: (§1) To determine the cytotoxicity of the compounds of the present invention, 0.1 μM to 100 μM of the novel compounds were added to H9 cell or Sup T1 cell and the mixture was cultured on a rpmi-1640 medium at 37° C. The medium was refreshed every 3 days and the extent of cell proliferation was observed using Hemacytometer according to the trypan blue dye exclusion technique which is well known in the art. CT50 (i.e., concentration that causes death of cells by 50%) was determined. For reference, AZT(Burrows-Wellcome), A-75925 (Abbott, C2 symmetric compound) and Ro-31-8959(F. Hofmann-La Roche) were used as control compounds.

HIV-1 protease = molecular target: T1, HIV-1 protease (Human immunodeficiency virus type 1 group M subtype B, UniProt P04585); experiment: Assay for inhibitory effect on HIV protease (residual enzyme activity, HPLC of substrate cleavage); format: biochemical
T1 construct: 2.6 nM of HIV-1 protease
How it was run: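 HIV-1 protease (2.6 nM) incubated with inhibitor in 50 mM sodium acetate pH 5.5, 1 mM DTT, 1 mM EDTA, 0.75 M ammonium sulfate, 0.2 M NaCl, 0.1% NP40. Residual activity was sampled over time using 100 μM p-NO2-Phe undecapeptide substrate (KM 20 μM), HPLC, 280 nm. kobs came from ln(activity)-versus-time slope, and KI and kina from kinetic fitting.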

[1] = Cytotoxicity in H9 or Sup T1 cells (trypan blue dye exclusion); format: cell-based; details: human
Experimental: as §1

[2] = HIV-1 protease 2.6 nM, pH 5.5, inhibition constant
[3] = HIV-1 protease 2.6 nM, pH 5.5, rate constant of covalent bond formation, read-out: kina (converted)
[4] = second order rate constant, HIV-1 protease, pH 5.5, read-out: kina /KI (converted)
[5] = Human immunodeficiency virus 1, SUP-T1
[6] = concentration that causes death of cells by 50%, H9 or Sup T1 cells, 37° C, read-out: CT50 (the source's name)

| SMILES | IC50 (HIV-1; inhibits proliferation of HIV by 50%, Sup T1 syncytium or H9 reverse transcriptase assay, 37° C, read-out: IC50) | CC50 (H9 cell or Sup T1 cell) | Ki (HIV-1 protease; [2]) | kinact (HIV-1 protease; [3]) | kinact/KI (HIV-1 protease; [4]) | IC50 (HIV-1; [5]) | CC50 [1, 6] | Ki (HIV-1 protease) | kinact (HIV-1 protease; pH 5.5, read-out: kina) | kinact/KI (HIV-1 protease; pH 5.5, read-out: kina /KI) | CC50 ([1]; h9 or sup t1 cells) |
| --- | --- | --- | --- | --- | --- | --- | --- | --- | --- | --- | --- |
| CC(C)[C@H](NC(=O)OCc1ccccc1)C(=O)N[C@@H](Cc1ccccc1)[C@@H](O)[C@H](O)[C@H](Cc1ccccc1)NC(=O)[C@@H](NC(=O)OCc1ccccc1)C(C)C [A-75925, reference compound] | 250 nM | > 100000 nM |  |  |  |  |  |  |  |  |  |
| CC(C)[C@H](NC(=O)OCc1ccccc1)C(=O)N[C@@H](Cc1ccccc1)[C@H]1O[C@H]1CCc1ccccc1 [compound 53, 2-L-(N-benzyloxycarbonyl-L-valinyl)amino-(3R,4S)-epoxy-1,6-diphenylhexane] |  |  | 91 nM | 0.0015 s⁻¹ | 16500 M⁻¹ s⁻¹ | 1000 to 1500 nM | > 100000 nM |  |  |  |  |
| NC(=O)C[C@H](NC(=O)COc1cccc2ccccc12)C(=O)N[C@@H](Cc1ccccc1)[C@H]1O[C@H]1CCc1ccccc1 [compound 61, 2-L-(N-1-naphthoxyacetyl-L-asparaginyl)amino-(3R,4S)-epoxy-1,6-diphenylhexane] |  |  | 250 nM | 0.0005 s⁻¹ | 2000 M⁻¹ s⁻¹ | 1000 to 2000 nM | > 100000 nM |  |  |  |  |
| NC(=O)C[C@H](NC(=O)c1ccc2ccccc2n1)C(=O)N[C@@H](Cc1ccccc1)[C@H]1O[C@H]1CCc1ccccc1 [compound 62, 2-L-(N-2-quinolinecarbonyl-L-asparaginyl)amino-(3R,4S)-epoxy-1,6-diphenylhexane] |  |  | 130 nM | 0.00183 s⁻¹ | 14200 M⁻¹ s⁻¹ | 200 to 700 nM | > 100000 nM |  |  |  |  |
| NC(=O)C[C@H](NC(=O)c1cnc2ccccc2n1)C(=O)N[C@@H](Cc1ccccc1)[C@H]1O[C@H]1CCc1ccccc1 [compound 63, 2-L-(N-quinoxaline-2-ylcarbonyl-L-asparaginyl)amino-(3R,4S)-epoxy-1,6-diphenylhexane] |  |  | 250 nM | 0.00483 s⁻¹ | 20000 M⁻¹ s⁻¹ | 1000 to 2000 nM | > 100000 nM |  |  |  |  |
| CC(C)CC[C@@H]1O[C@@H]1[C@H](Cc1ccccc1)NC(=O)[C@H](CC(N)=O)NC(=O)c1ccc2ccccc2n1 [compound 70, 2-L-[N-(2-quinolinecarbonyl)-L-asparaginyl]amino-(3R,4S)-epoxy-7-methyl-1-phenyloctane] |  |  | 310 nM | 0.002 s⁻¹ | 6500 M⁻¹ s⁻¹ | 5000 nM | > 100000 nM |  |  |  |  |
| CC(C)[C@H](NC(=O)OCc1ccccc1)C(=O)NC[C@@H]1O[C@@H]1[C@H](Cc1ccccc1)NC(=O)[C@@H](NC(=O)OCc1ccccc1)C(C)C [compound 71, 4S-1,4-bis[N-(N'-benzyloxycarbonyl-L-valinyl)amino]-5-phenyl-(2S,3R)-(Z)-epoxypentane] |  |  |  |  |  | 80 nM | > 100000 nM | 0.18 nM | 0.00233 s⁻¹ | 1.28e+06 M⁻¹ s⁻¹ |  |
| NC(=O)C[C@H](NC(=O)OCc1ccccc1)C(=O)NC[C@@H]1O[C@@H]1[C@H](Cc1ccccc1)NC(=O)[C@H](CC(N)=O)NC(=O)OCc1ccccc1 [compound 72] |  |  | 110 nM | 0.00367 s⁻¹ | 33300 M⁻¹ s⁻¹ | 500 nM |  |  |  |  | > 100000 nM |
| C[C@@H](O)[C@H](NC(=O)OCc1ccccc1)C(=O)NC[C@@H]1O[C@@H]1[C@H](Cc1ccccc1)NC(=O)[C@@H](NC(=O)OCc1ccccc1)[C@@H](C)O [compound 73] |  |  | > 10000 nM |  |  | 5000 nM | > 100000 nM |  |  |  |  |
| CC(C)[C@H](NC(=O)OCc1ccccc1)C(=O)NC[C@@H]1O[C@@H]1[C@H](Cc1ccccc1)NC(=O)[C@H](CC(N)=O)NC(=O)OCc1ccccc1 [compound 75] |  |  | > 10000 nM |  |  | 1000 nM | > 10000 nM |  |  |  |  |
| CC(C)[C@H](NC(=O)OCc1ccccc1)C(=O)N[C@@H](Cc1ccccc1)[C@H]1O[C@H]1CNC(=O)[C@H](CC(N)=O)NC(=O)OCc1ccccc1 [compound 76, 4S-[N^1-[(N-benzyloxycarbonyl-L-asparaginyl)amino]]-[N^4-[(N-benzyloxycarbonyl-L-valinyl)amino]]-5-phenyl-(2S,3R)-(Z)-epoxypentane] |  |  | 2000 nM | 0.000767 s⁻¹ | 383 M⁻¹ s⁻¹ | 1000 nM | > 100000 nM |  |  |  |  |
| CC(C)[C@H](NC(=O)OCc1ccccn1)C(=O)NC[C@@H]1O[C@@H]1[C@H](Cc1ccccc1)NC(=O)[C@@H](NC(=O)OCc1ccccn1)C(C)C [compound 77] |  |  | 100 nM | 0.004 s⁻¹ | 40000 M⁻¹ s⁻¹ | 1000 nM | > 100000 nM |  |  |  |  |
| CC(C)[C@H](NC(=O)N(C)Cc1ccccn1)C(=O)NC[C@@H]1O[C@@H]1[C@H](Cc1ccccc1)NC(=O)[C@@H](NC(=O)N(C)Cc1ccccn1)C(C)C [compound 80] |  |  | 150 nM | 0.00533 s⁻¹ | 35000 M⁻¹ s⁻¹ | 500 nM | > 100000 nM |  |  |  |  |
| CC(C)[C@H](NC(=O)OCc1ccccc1)C(=O)N[C@@H](Cc1ccccc1)[C@H]1O[C@H]1CNC(=O)OC(C)(C)C [compound 82, 4S-[N^1-(t-butoxycarbonyl)amino]-[N^4-[(N-benzyloxycarbonyl-L-valinyl)amino]]-5-phenyl-(2S,3R)-(Z)-epoxypentane] |  |  | 450 nM | 0.0183 s⁻¹ | 40000 M⁻¹ s⁻¹ | 750 nM | > 10000 nM |  |  |  |  |
| CC(C)(C)OC(=O)NC[C@@H]1O[C@@H]1[C@H](Cc1ccccc1)NC(=O)[C@H](CC(N)=O)NC(=O)c1ccc2ccccc2n1 [compound 83] |  |  | 400 nM | 0.02 s⁻¹ | 50000 M⁻¹ s⁻¹ | 750 nM | > 10000 nM |  |  |  |  |
| NC(=O)C[C@H](NC(=O)c1ccc2ccccc2n1)C(=O)NC[C@@H]1O[C@@H]1[C@H](Cc1ccccc1)NC(=O)[C@H](CC(N)=O)NC(=O)c1ccc2ccccc2n1 [compound 84] |  |  | 500 nM | 0.00333 s⁻¹ | 6670 M⁻¹ s⁻¹ | 1000 nM | > 100000 nM |  |  |  |  |
| NC(=O)C[C@H](NC(=O)OCc1ccccc1)C(=O)NC[C@@H]1O[C@@H]1[C@H](CC1CCCCC1)NC(=O)[C@H](CC(N)=O)NC(=O)OCc1ccccc1 [compound 85] |  |  | > 10000 nM |  |  | 5000 nM |  |  |  |  | > 100000 nM |
| CC(C)[C@H](NC(=O)OCc1ccccc1)C(=O)NC[C@@H]1O[C@@H]1[C@H](CC1CCCCC1)NC(=O)[C@@H](NC(=O)OCc1ccccc1)C(C)C [compound 86, 4S-1,4-bis[N-(N'-benzyloxycarbonyl-L-valinyl)amino]-5-cyclohexyl-(2S,3R)-(Z)-epoxypentane] |  |  | 50 nM | 0.00333 s⁻¹ | 66700 M⁻¹ s⁻¹ | 500 nM | > 100000 nM |  |  |  |  |
